Results from patent US8663646B2, “P53 peptide vaccine” (priority 2007, dated 2014).
Where no end group is shown, it is not given here.

How the values were obtained:
HLA-A*2401 [1] = test: Stability of peptide-HLA complex, binding at 4° C. and 20° C., HLA-A*2401; design: species or system human; details: for HLA binding Stability (Table 5): HLA type A24; for Peptide Binding Stability: HLA-A*2401, IC50 at 20° C. vs 4° C.
Protocol: (§1) Stability of other peptide-HLA complexes was preferably determined as follows. […] Peptides of >50% of the initial complexes was lost within 2 hours were considered unstable. […] The rest was designated as unstable peptide binding.
(§2) Peptides 8-11 residues in length were selected based on typical anchor residues for HLA-A*0101, A*0301, A*1101 and HLA-A*2401 (Rammensee H G et al). The capacity of peptides to bind was tested in a competition based cellular binding assay as previously described (van der Burg S H et al 1995). FL-labeled reference peptides were synthesized as Cys-derivative (van der Burg S H et al 1995). Fluorescence labeled reference peptides used were: YLEPAC(FL)AK (SEQ ID NO: 87) (HLA-A*0101) and KVFPC(FL)ALINK (SEQ ID NO: 88) (HLA-A*1101) (Sette A et al), KVFPC(FL)ALINK (SEQ ID NO: 89) (HLAA*0301) (van der Burg S H et al 1995) and RYLKC(FL)QQLL (SEQ ID NO: 90) (A*2401) (Dai L C et al). B-cell lines used are: CAA (A*0101), EKR (A*0301), BVR (A*1101), VIJF (A*2401). The relative binding capacity of the peptides is expressed as the peptide concentration to inhibit 50% (1050) of the binding of the reference peptide. […] Peptide stabilization for HLA-A*0201 was performed as previously described (van der Burg S H et al, 1996). Peptides of >50% of the initial complexes was lost within 2 hours were considered unstable. Stability of other peptide-HLA complexes was determined as follows. Peptide binding was performed at 4° C. and 20° C. and 1050 were determined. […] The rest was designated as unstable peptide binding.

HLA-A*2401 [2] = test: Competition based cellular binding assay, HLA-A*2401 (B-cell line VIJF); design: species or system human; details: for HLA binding Affinity (Table 5): HLA type A24; for Peptide Binding Affinity: HLA-A*2401, IC50 category
HLA-A*0301 [3] = biological target: T1, HLA-A*0301 (Homo sapiens, UniProt P04439); test: Competition based cellular binding assay, HLA-A*0301 (B-cell line EKR); details: for HLA binding Affinity (Table 5): HLA type A3
T1 construct: B-cell lines used are: CAA (A*0101), EKR (A*0301), BVR (A*1101), VIJF (A*2401); endogenous in cells; host or cells: B-cell line EKR

[4] = biological target: T2, 20S household proteasomes from human tumor cell line (HeLa) (Homo sapiens, UniProt P28072+P28074+Q99436); test: In vitro proteasome mediated digestion of 30-mers, mass spectrometry, household proteasome HeLa; type: biochemical; details: 30 residue long precursor peptides
T2 construct: 20S household proteasomes were purified from human tumor cell line (HeLa); endogenous in cells; host or cells: HeLa cells; 20S proteasome purified from them
Protocol: (§3) In the context of the invention, “being inefficiently processed by a proteasome” preferably means that within the first hour of digestion by a proteasome less than 1% of total digested peptide is found. The processing by a proteasome is preferably assessed by incubating a purified proteasome, more preferably a human proteasome with a peptide comprising the potential CTL epitope (30 amino acid length approximately) in a proteasome digestion buffer during at least one hour at 37° C. The reaction is subsequently stopped by adding trifluoroacetic acid. Analysis of the digested peptides is performed with electrospray ionization mass spectrometry (see example 1). Even more preferably, the human proteasome is an immunoproteasome from B-LCL JY cells (Kessler J H et al. 2001).
(§4) 20S immuno-proteasomes were purified from a mouse B-cell line (RMA) and a human B-LCL cell line (JY) and 20S household proteasomes were purified from human tumor cell line (HeLa) as described (Kessler J H et al 2001). To assess kinetics, digestions were performed with different incubation periods as indicated. Briefly, peptides containing the (potential) CTL epitopes (30 mers, 20 μg) were incubated with 1 μg of purified proteasome at 37° C. for 1 h, 4 h and 24 h in 300 μl proteasome digestion buffer, trifluoroacetic acid (30 μl) was added to stop the digestion and samples were stored at −20° C. before mass spectrometric analysis. Electrospray ionization mass spectrometry was performed on a hybrid quadrupole time-of-flight mass spectromter, a Q-TOF (Micromass), equipped with an on-line nanoelectrospray interface with an approximate flow rate of […] as described (Kessler J H et al 2001). The peaks in the mass spectrum were searched in the digested precursor peptide using the Biolynx/proteins software (Micromass) supplied with the mass spectrometer. The intensity of the peaks in the mass spectra was used to establish the relative amounts of peptides generated after proteasome digestion. The relative amounts of the peptides are given as a percentage of the total amount of peptide digested by the proteasome at the indicated incubation time. Major cleavage sites are defined as more than >1% of total digested peptide within the first hour.

[5] = biological target: T3, 20S immuno-proteasomes from mouse B-cell line (RMA) (Mus musculus, UniProt O35955+P28063+P28076); test: In vitro proteasome mediated digestion of 30-mers, mass spectrometry, immunoproteasome RMA; type: biochemical; details: 30 residue long precursor peptides
T3 construct: 20S immuno-proteasomes were purified from a mouse B-cell line (RMA); endogenous in cells; host or cells: RMA cells; 20S proteasome purified from them
Protocol: as §3, §4

HLA-A*0301 [6] = biological target: T1, HLA-A*0301; test: Stability of peptide-HLA complex, binding at 4° C. and 20° C., HLA-A*0301; details: for Peptide Binding Stability: HLA-A*0301, IC50 at 20° C. vs 4° C.; for HLA binding Stability (Table 5): HLA type A3
Protocol: as §1, §2

[7] = biological target: T4, 20S immuno-proteasomes from human B-LCL cell line (JY) (Homo sapiens, UniProt P28062+P28065+P40306); test: In vitro proteasome mediated digestion of 30-mers, mass spectrometry, immunoproteasome JY; type: biochemical; details: 30 residue long precursor peptides
T4 construct: purified from a mouse B-cell line (RMA) and a human B-LCL cell line (JY); endogenous in cells; host or cells: B-LCL JY cells; 20S proteasome purified from them
Protocol: as §3, §4

HLA-A*1101 [8] = biological target: T5, HLA-A*1101 (Homo sapiens, UniProt P04439, A114D/D185E/E176A/F33Y/L180Q/S129P/T187R); test: Stability of peptide-HLA complex, binding at 4° C. and 20° C., HLA-A*1101; details: HLA-A*1101; IC50 at 20° C. vs 4° C.
T5 construct: B-cell lines used are: CAA (A*0101), EKR (A*0301), BVR (A*1101), VIJF (A*2401); endogenous in cells; host or cells: B-cell line BVR
Protocol: as §1, §2

HLA-A*1101 [9] = biological target: T5, HLA-A*1101; test: Competition based cellular binding assay, HLA-A*1101 (B-cell line BVR); details: HLA-A*1101; IC50 category

Row | Molecule | HLA binding Stability (Table 5) (HLA-A*2401 [1]) | Peptide Binding Stability (HLA-A*2401 [1]) | HLA binding Affinity (Table 5) (HLA-A*2401 [2]) | Peptide Binding Affinity (HLA-A*2401 [2]) | Peptide Binding Affinity (HLA-A*0301 [3]; HLA-A*0301, IC50 category) | Proteasomal Cleavage of C-terminus, HH (HeLa) [4] | Proteasomal Cleavage of C-terminus, IP (RMA) [5] | Peptide Binding Stability (HLA-A*0301 [6]) | Proteasomal Cleavage of C-terminus, IP (JY) [7] | Peptide Binding Stability (HLA-A*1101 [8]) | Peptide Binding Affinity (HLA-A*1101 [9]) | HLA binding Affinity (Table 5) (HLA-A*0301 [3]) | IC50 (HLA-A*0301 [3]; HLA-A*0301, IC50 category, read-out: Peptide Binding Affinity) [µM] | HLA binding Stability (Table 5) (HLA-A*0301 [6])
1 | CSCC[C@H](N)C(=O)N[C@@H](Cc1ccccc1)C(=O)N[C@@H](CCCNC(=N)N)C(=O)N[C@@H](CCC(=O)O)C(=O)N[C@@H](CC(C)C)C(=O)N[C@@H](CC(N)=O)C(=O)N[C@@H](CCC(=O)O)C(=O)N[C@@H](C)C(=O)N[C@@H](CC(C)C)C(=O)O [p53 340-348, MFRELNEAL] | +/− (Peptides that displayed IC50 at 20 °C of more than twice the IC50 at 4 °C but IC50 < 15 μM were considered to bind with intermediate stability.) | +/− (Peptides that displayed IC50 at 20 °C of more than twice the IC50 at 4 °C but IC50 < 15 μM were considered to bind with intermediate stability.) | high | high | – | – | – | – | – | – | – | – | – | –
2 | CSCC[C@H](NC(=O)[C@@H](N)CCCCN)C(=O)N[C@@H](Cc1ccccc1)C(=O)N[C@@H](CS)C(=O)N[C@@H](CCC(N)=O)C(=O)N[C@@H](CC(C)C)C(=O)N[C@@H](C)C(=O)N[C@@H](CCCCN)C(=O)O [p53 132-139] | – | – | – | – | high | + (Major cleavage sites are defined as more than >1% of total digested peptide within the first hour) | + (Major cleavage sites are defined as more than >1% of total digested peptide within the first hour) | + (Stable peptides displayed IC50 at 20 °C that deviated <2 times of the IC50 at 4° C.) | + (Major cleavage sites are defined as more than >1% of total digested peptide within the first hour) | + (Stable peptides displayed IC50 at 20 °C that deviated <2 times of the IC50 at 4° C.) | high | – | – | –
3 | CC[C@H](C)[C@H](NC(=O)[C@@H](NC(=O)[C@@H](NC(=O)[C@H](CS)NC(=O)[C@H](CC(=O)O)NC(=O)[C@H](CO)NC(=O)CN)[C@@H](C)O)[C@@H](C)O)C(=O)N[C@@H](Cc1c[nH]cn1)C(=O)N[C@@H](Cc1ccc(O)cc1)C(=O)O [p53 226-234] | – | – | – | – | – | + (Major cleavage sites are defined as more than >1% of total digested peptide within the first hour) | + (Major cleavage sites are defined as more than >1% of total digested peptide within the first hour) | – | – | – | – | – | – | –
4 | CC(C)C[C@H](NC(=O)[C@H](Cc1ccc(O)cc1)NC(=O)[C@@H](N)CCC(=O)O)C(=O)N[C@@H](CC(=O)O)C(=O)N[C@@H](CC(=O)O)C(=O)N[C@@H](CCCNC(=N)N)C(=O)N[C@@H](CC(N)=O)C(=O)N[C@H](C(=O)N[C@@H](Cc1ccccc1)C(=O)O)[C@@H](C)O [p53 204-212] | + (Stable peptides displayed IC50 at 20 °C that deviated <2 times of the IC50 at 4° C.) | + (Stable peptides displayed IC50 at 20 °C that deviated <2 times of the IC50 at 4° C.) | high | high | – | – | – | – | – | – | – | – | – | –
5 | KGQSTSRHK [p53 373-381] | – | – | – | – | – | + (Major cleavage sites are defined as more than >1% of total digested peptide within the first hour) | + (Major cleavage sites are defined as more than >1% of total digested peptide within the first hour) | +/− (Peptides that displayed IC50 at 20 °C of more than twice the IC50 at 4 °C but IC50 < 15 μM were considered to bind with intermediate stability.) | + (Major cleavage sites are defined as more than >1% of total digested peptide within the first hour) | – | – | int | 5 to 15 | − (The rest was designated as unstable peptide binding.)
6 | CC(C)C[C@H](NC(=O)[C@@H](NC(=O)[C@H](CC(N)=O)NC(=O)[C@H](CC(N)=O)NC(=O)[C@H](CCC(=O)O)NC(=O)[C@@H]1CCCN1C(=O)[C@H](CC(C)C)NC(=O)[C@H](CC(C)C)NC(=O)[C@@H](N)CCCCN)C(C)C)C(=O)O [p53 24-32] | – | – | – | – | – | + (Major cleavage sites are defined as more than >1% of total digested peptide within the first hour) | + (Major cleavage sites are defined as more than >1% of total digested peptide within the first hour) | – | + (Major cleavage sites are defined as more than >1% of total digested peptide within the first hour) | – | – | – | – | –
7 | CSCC[C@H](NC(=O)[C@H](CCCCN)NC(=O)[C@H](CC(N)=O)NC(=O)[C@H](CC(C)C)NC(=O)[C@H](C)N)C(=O)N[C@@H](Cc1ccccc1)C(=O)N[C@@H](CS)C(=O)N[C@@H](CCC(N)=O)C(=O)N[C@@H](CC(C)C)C(=O)N[C@@H](C)C(=O)N[C@@H](CCCCN)C(=O)O [p53 129-139] | – | – | – | – | high | + (Major cleavage sites are defined as more than >1% of total digested peptide within the first hour) | + (Major cleavage sites are defined as more than >1% of total digested peptide within the first hour) | + (Stable peptides displayed IC50 at 20 °C that deviated <2 times of the IC50 at 4° C.) | + (Major cleavage sites are defined as more than >1% of total digested peptide within the first hour) | – | – | – | – | –
8 | LGFLHSGTAK [p53 111-120] | – | – | – | – | high | – | + (Major cleavage sites are defined as more than >1% of total digested peptide within the first hour) | +/− (Peptides that displayed IC50 at 20 °C of more than twice the IC50 at 4 °C but IC50 < 15 μM were considered to bind with intermediate stability.) | + (Major cleavage sites are defined as more than >1% of total digested peptide within the first hour) | + (Stable peptides displayed IC50 at 20 °C that deviated <2 times of the IC50 at 4° C.) | high | high | – | +/− (Peptides that displayed IC50 at 20 °C of more than twice the IC50 at 4 °C but IC50 < 15 μM were considered to bind with intermediate stability.)
